Source: EPA's ToxValDB 9.5
“And” between values parts separate entries of the source, which are not always exact repeats. Identical values can stand only once. One block for each compound: values may come before it.

What was measured:
Rattus norvegicus [1] = settings: for LOEL / NOEL: Hershberger, gavage
Rattus norvegicus [2] = settings: for LD50 / LC50: acute
Mus musculus = settings: for LD50 / LC50: acute
Rattus norvegicus [3] = settings: subchronic, oral, diet, Fischer 344, Body Weight Changes: decrease + Food Consumption: decrease + Hematology: Hgb decrease, Plt increase + Blood Chemistry: gamma-GTP increase, …
Rattus norvegicus [4] = settings: developmental; oral; gavage; M; Sprague-Dawley; generation: F1; F1: Testosterone (Testes) production
[5] = uterotrophic, duration: 3 days, injection, subcutaneous, Active
[6] = chronic, duration: 14 weeks, inhalation, B6C3F1
[7] = duration: 7 days, oral, Sprague-Dawley, active + Antiandrogenic + anti-androgenic
[8] = duration: 10 days, oral, Wistar, active + Negative + Antiandrogenic + anti-androgenic
[9] = uterotrophic, duration: 3 days, oral, Active

- LEL (Rattus norvegicus [1]; [5]): 0.005 mg/day
SMILES: Cc1c(O)ccc2c1CC[C@@H]1[C@@H]2CC[C@]2(C)[C@@H](O)CC[C@@H]12 [4-Methylestradiol]

SMILES: CC(C)(C)c1ccc(O)cc1 [4-(1,1-Dimethylethyl)phenol]
- LEL (Rattus norvegicus [1]; [5]): 100 mg/kg-day and 99.2 mg/kg-day
- LOAEL (Rattus norvegicus [2]; short-term, duration: 14 days, oral, gavage, Crj:CD): 250 mg/kg-day

SMILES: CCCCCCCCCc1ccccc1O [n-Nonylphenol]
- LOEL (Rattus norvegicus [1]; duration: 10 days, oral, Sprague-Dawley, active + Negative + Antiandrogenic + anti-androgenic + slight delay in timing of PPS, but only 33% of rats had complete separation by end of…): 100 mg/kg-day and 160 mg/kg-day
- LEL (Rattus norvegicus [1]; [5]): 100 mg/kg-day

SMILES: C=CC=C [1,3-Butadiene]
- LOAEL (Rattus norvegicus [2]; repeat dose other, inhalation, Sprague-Dawley): > 17700 mg/m3 and 17700 mg/m3
- NOAEL (Rattus norvegicus [2]; reproduction developmental, duration: 10 days, inhalation, Sprague-Dawley, generation: F1): 2210 mg/m3
- LOAEL (Rattus norvegicus [2]; reproduction developmental, inhalation, Sprague-Dawley): 3320 mg/m3
- NOAEL (Rattus norvegicus [2]; reproduction developmental, inhalation, Sprague-Dawley, generation: F0): 664 mg/m3
- LOAEL (Mus musculus; [6]): 5530 mg/m3
- NOAEL (Mus musculus; [6]): 2770 mg/m3
- NOAEL (Mus musculus; reproduction developmental, duration: 5 days, inhalation, M, B6C3F1): 442 mg/m3
- NOAEL (Mus musculus; reproduction developmental, duration: 10 days, inhalation, CD1, generation: F1): 88.5 mg/m3

- LEL (Rattus norvegicus [1]; uterotrophic, duration: 4 days, oral, diet, Active): 1520 mg/kg-day
SMILES: COc1ccc(C(=O)c2ccccc2)c(O)c1 [2-Hydroxy-4-methoxybenzophenone]
- NOEL (Rattus norvegicus [3]; F): < 196 mg/kg-day
- NOEL (Rattus norvegicus [3]; M/F): < 300 mg/kg-day

SMILES: O=C1CCC(=O)N1c1cc(Cl)cc(Cl)c1 [N-(3,5-Dichlorophenyl)succinimide]
- LOEL (Rattus norvegicus [1]; [7]): 100 mg/kg-day
- NOEL (Rattus norvegicus [1]; [7]): 50 mg/kg-day

SMILES: CC(C)COC(=O)C(C)C [Isobutyl isobutyrate]
- LD50 (Rattus norvegicus [2]; oral): > 6400 mg/kg
- LD50 (Mus musculus; oral): > 6400 mg/kg

SMILES: CCCCOCCOCCOCc1cc2c(cc1CCC)OCO2 [Piperonyl butoxide]
- NOEL (Rattus norvegicus [1]; duration: 10 days, oral, Sprague-Dawley, inactive + Negative + Negative + anti-androgenic + see note): 500 mg/kg-day

SMILES: CC(=O)[C@@]1(O)CC[C@H]2[C@@H]3C[C@H](C)C4=CC(=O)CC[C@]4(C)[C@H]3CC[C@@]21C [Medroxyprogesterone]
- LOEL (Rattus norvegicus [1]; [8]): 100 mg/kg-day
- NOEL (Rattus norvegicus [1]; [8]): 20 mg/kg-day

SMILES: CCBr [Bromoethane]
- LC50 (Rattus norvegicus [2]; inhalation, Fischer 344): 20900 mg/m3
- LC50 (Rattus norvegicus [2]; inhalation, Sprague-Dawley): 120000 mg/m3
- NOAEL (Rattus norvegicus [2]; chronic, duration: 14 weeks, inhalation, Fischer 344): 1780 mg/m3
- NOAEL (Rattus norvegicus [2]; short-term, duration: 14 days, inhalation, Fischer 344): 2230 mg/m3
- LC50 (Mus musculus; inhalation, B6C3F1): 12100 mg/m3
- LC50 (Mus musculus; inhalation, CF1): 72200 mg/m3
- NOAEL (Mus musculus; short-term, duration: 14 days, inhalation, B6C3F1): 2230 mg/m3

SMILES: C[C@]12CC[C@H](O)CC1=CC[C@@H]1[C@@H]2CC[C@]2(C)C(=O)CC[C@@H]12 [Dehydroepiandrosterone]
- LEL (Rattus norvegicus [1]; [5]): 6 mg
- LEL (mg/100 g BW) (Rattus norvegicus [1]; [5]): 0.6
- LEL (Rattus norvegicus [1]; uterotrophic, duration: 21 days, Active): 1 mg/day
- LEL (Rattus norvegicus [1]; uterotrophic, duration: 28 days, oral, diet, Active): 2000 mg/kg-day
- LEL (Rattus norvegicus [1]; uterotrophic, duration: 36 days, injection, subcutaneous, Active): 30 mg/kg-day

SMILES: CCCCCCCCCCCCCCCCCCOC(=O)CCSCCC(=O)OCCCCCCCCCCCCCCCCCC [Distearyl thiodipropionate]
- LD50 (Rattus norvegicus [2]; dermal): > 2000 mg/kg
- LD50 (Rattus norvegicus [2]; oral): > 5000 mg/kg
- LD50 (Mus musculus; injection, Intraperitoneal): > 2000 mg/kg
- LD50 (Mus musculus; oral): > 2000 mg/kg

SMILES: C[C@H]1CCC[C@H](O)CCC/C=C/c2cc(O)cc(O)c2C(=O)O1 [alpha-Zearalenol]
- LEL (Rattus norvegicus [1]; [9]): 0.01 mg/day

SMILES: CCCCCOC(=O)c1ccccc1C(=O)OCCCCC [Dipentyl phthalate]
- LOEL (Rattus norvegicus [1]; [8]): 1000 mg/kg-day
- NOEL (Rattus norvegicus [1]; [8]): 200 mg/kg-day
- NOEL (Rattus norvegicus [4]): 50 mg/kg-day

SMILES: CC(=O)S[C@@H]1CC2=CC(=O)CC[C@]2(C)[C@H]2CC[C@@]3(C)[C@@H](CC[C@@]34CCC(=O)O4)[C@H]12 [Spironolactone]
- LOEL (Rattus norvegicus [1]; [8]): 40 mg/kg-day
- NOEL (Rattus norvegicus [1]; [8]): 8 mg/kg-day

SMILES: CC(C)OB(OC(C)C)OC(C)C [Triisopropyl orthoborate]
- LD50 (Rattus norvegicus [2]; oral, gavage): 8130 mg/kg
- LD50 (Mus musculus; oral, Swiss): 2500 mg/kg

SMILES: CCCCCCCCCCCCOC(=O)CCSCCC(=O)OCCCCCCCCCCCC [Propanoic acid, 3,3'-thiobis-, didodecyl ester]
- LD50 (Rattus norvegicus [2]; oral): > 2500 mg/kg
- NOAEL (Rattus norvegicus [2]; reproduction developmental, duration: 13 weeks, oral, gavage, Sprague-Dawley): 350 mg/kg-day
- NOAEL (Rattus norvegicus [2]; subchronic, duration: 13 weeks, oral, gavage, Sprague-Dawley): 350 mg/kg-day
- LD50 (Mus musculus; oral): > 2000 mg/kg

SMILES: C[C@H]1CCCC(=O)CCCCCc2cc(O)cc(O)c2C(=O)O1 [Zearalanone]
- LEL (Rattus norvegicus [1]; [9]): 0.18 mg/day
